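These data come from cells grown in 96-well plates and exposed to compound for 48 hours at five concentrations. At the GI50, growth is halved. TGI: concentration producing complete growth inhibition.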
Experiments:
Experiment in all cases: NCI-60 cell line screen, 48 h
786-0 renal = tested on: 786-0 renal
A498 renal = tested on: A498 renal
A549 NSCLC = tested on: A549 NSCLC
ACHN renal = tested on: ACHN renal
BT-549 breast = tested on: BT-549 breast
CAKI-1 renal = tested on: CAKI-1 renal
CCRF-CEM leukemia = tested on: CCRF-CEM leukemia
DU-145 prostate = tested on: DU-145 prostate
EKVX NSCLC = tested on: EKVX NSCLC
HCC-2998 colon = tested on: HCC-2998 colon
HCT-116 colon = tested on: HCT-116 colon
HCT-15 colon = tested on: HCT-15 colon
HL-60(TB) leukemia = tested on: HL-60(TB) leukemia
HOP-62 NSCLC = tested on: HOP-62 NSCLC
HOP-92 NSCLC = tested on: HOP-92 NSCLC
HS 578T breast = tested on: HS 578T breast
HT29 colon = tested on: HT29 colon
IGROV1 ovarian = tested on: IGROV1 ovarian
K-562 leukemia = tested on: K-562 leukemia
KM12 colon = tested on: KM12 colon
M14 melanoma = tested on: M14 melanoma
MALME-3M melanoma = tested on: MALME-3M melanoma
MCF7 breast = tested on: MCF7 breast
MDA-MB-231 breast = tested on: MDA-MB-231 breast
MDA-MB-435 = tested on: MDA-MB-435
MDA-MB-468 breast = tested on: MDA-MB-468 breast
MOLT-4 leukemia = tested on: MOLT-4 leukemia
NCI-H226 lung = tested on: NCI-H226 lung
NCI-H23 lung = tested on: NCI-H23 lung
NCI-H460 lung = tested on: NCI-H460 lung
NCI-H522 lung = tested on: NCI-H522 lung
OVCAR-3 ovarian = tested on: OVCAR-3 ovarian
OVCAR-4 ovarian = tested on: OVCAR-4 ovarian
OVCAR-5 ovarian = tested on: OVCAR-5 ovarian
OVCAR-8 ovarian = tested on: OVCAR-8 ovarian
PC-3 prostate = tested on: PC-3 prostate
RPMI-8226 leukemia = tested on: RPMI-8226 leukemia
RXF 393 renal = tested on: RXF 393 renal
SF-268 CNS = tested on: SF-268 CNS
SF-295 CNS = tested on: SF-295 CNS
SF-539 CNS = tested on: SF-539 CNS
SK-MEL-2 melanoma = tested on: SK-MEL-2 melanoma
SK-MEL-28 melanoma = tested on: SK-MEL-28 melanoma
SK-MEL-5 melanoma = tested on: SK-MEL-5 melanoma
SK-OV-3 ovarian = tested on: SK-OV-3 ovarian
SN12C renal = tested on: SN12C renal
SNB-19 CNS = tested on: SNB-19 CNS
SNB-75 CNS = tested on: SNB-75 CNS
T-47D breast = tested on: T-47D breast
TK-10 renal = tested on: TK-10 renal
U251 CNS = tested on: U251 CNS
UACC-257 melanoma = tested on: UACC-257 melanoma
UACC-62 melanoma = tested on: UACC-62 melanoma
UO-31 renal = tested on: UO-31 renal

With `O=C(/C=C/c1cccc(OCc2ccccc2)c1)c1nc2ccccc2[nH]1` the GI50 (786-0 renal) was 14 µM, the TGI (786-0 renal) was 44.1 µM and the GI50 (A498 renal) was 25 µM. For the same molecule, the TGI (A498 renal) was over 100 µM, the GI50 (A549 NSCLC) was 49.9 µM and the TGI (A549 NSCLC) was over 100 µM. The GI50 (ACHN renal) was 29.6 µM, the TGI (ACHN renal) was over 100 µM and the GI50 (BT-549 breast) was 11.4 µM. For the same molecule, the TGI (BT-549 breast) was 40.2 µM, the GI50 (CAKI-1 renal) was 14 µM and the TGI (CAKI-1 renal) was over 100 µM. For the same molecule, the GI50 (CCRF-CEM leukemia) was 8.99 µM, the TGI (CCRF-CEM leukemia) was over 100 µM and the GI50 (DU-145 prostate) was 54.6 µM. For the same molecule, the TGI (DU-145 prostate) was over 100 µM, the GI50 (EKVX NSCLC) was 19.9 µM and the TGI (EKVX NSCLC) was 69.7 µM. It also gave a GI50 (HCC-2998 colon) of 7.19 µM, a TGI (HCC-2998 colon) of 41.3 µM and a GI50 (HCT-116 colon) of 3.2 µM. It also gave a TGI (HCT-116 colon) of over 100 µM, a GI50 (HCT-15 colon) of 3.06 µM and a TGI (HCT-15 colon) of over 100 µM. For the same molecule, the GI50 (HL-60(TB) leukemia) was 4.39 µM, the TGI (HL-60(TB) leukemia) was 25 µM and the GI50 (HOP-62 NSCLC) was 17.8 µM. It also gave a TGI (HOP-62 NSCLC) of 43.2 µM, a GI50 (HOP-92 NSCLC) of 6.51 µM and a TGI (HOP-92 NSCLC) of 37.2 µM. It also gave a GI50 (HS 578T breast) of 20.3 µM, a TGI (HS 578T breast) of 82.5 µM and a GI50 (HT29 colon) of 3.98 µM. It also gave a TGI (HT29 colon) of over 100 µM, a GI50 (IGROV1 ovarian) of 14 µM and a TGI (IGROV1 ovarian) of 78.2 µM. The GI50 (K-562 leukemia) was 4.14 µM, the TGI (K-562 leukemia) was over 100 µM and the GI50 (KM12 colon) was 3.56 µM. It also gave a TGI (KM12 colon) of over 100 µM, a GI50 (M14 melanoma) of 45.1 µM and a TGI (M14 melanoma) of over 100 µM. For the same molecule, the GI50 (MALME-3M melanoma) was 28.3 µM, the TGI (MALME-3M melanoma) was over 100 µM and the GI50 (MCF7 breast) was 2.9 µM. For the same molecule, the TGI (MCF7 breast) was over 100 µM, the GI50 (MDA-MB-231 breast) was 11.9 µM and the TGI (MDA-MB-231 breast) was 42.5 µM. For the same molecule, the GI50 (MDA-MB-435) was over 100 µM, the TGI (MDA-MB-435) was over 100 µM and the GI50 (MDA-MB-468 breast) was 10.7 µM. It also gave a TGI (MDA-MB-468 breast) of 82.5 µM, a GI50 (MOLT-4 leukemia) of 5.28 µM and a TGI (MOLT-4 leukemia) of 55.1 µM. It also gave a GI50 (NCI-H226 lung) of 24.3 µM, a TGI (NCI-H226 lung) of over 100 µM and a GI50 (NCI-H23 lung) of 18.3 µM. For the same molecule, the TGI (NCI-H23 lung) was over 100 µM, the GI50 (NCI-H460 lung) was 15.4 µM and the TGI (NCI-H460 lung) was over 100 µM. It also gave a GI50 (NCI-H522 lung) of 26.3 µM, a TGI (NCI-H522 lung) of over 100 µM and a GI50 (OVCAR-3 ovarian) of 4.01 µM. The TGI (OVCAR-3 ovarian) was over 100 µM, the GI50 (OVCAR-4 ovarian) was 23.9 µM and the TGI (OVCAR-4 ovarian) was over 100 µM. For the same molecule, the GI50 (OVCAR-5 ovarian) was 25.2 µM, the TGI (OVCAR-5 ovarian) was over 100 µM and the GI50 (OVCAR-8 ovarian) was 17 µM. The TGI (OVCAR-8 ovarian) was 72.6 µM, the GI50 (PC-3 prostate) was 15.9 µM and the TGI (PC-3 prostate) was over 100 µM. For the same molecule, the GI50 (RPMI-8226 leukemia) was 2.86 µM, the TGI (RPMI-8226 leukemia) was 8.3 µM and the GI50 (RXF 393 renal) was 10.5 µM. The TGI (RXF 393 renal) was 27.9 µM, the GI50 (SF-268 CNS) was 26.2 µM and the TGI (SF-268 CNS) was over 100 µM. The GI50 (SF-295 CNS) was 15.6 µM, the TGI (SF-295 CNS) was 37.9 µM and the GI50 (SF-539 CNS) was 8.82 µM. The TGI (SF-539 CNS) was 26.7 µM, the GI50 (SK-MEL-2 melanoma) was 22.5 µM and the TGI (SK-MEL-2 melanoma) was 64.8 µM. The GI50 (SK-MEL-28 melanoma) was 25.2 µM, the TGI (SK-MEL-28 melanoma) was over 100 µM and the GI50 (SK-MEL-5 melanoma) was 39.1 µM. It also gave a TGI (SK-MEL-5 melanoma) of over 100 µM, a GI50 (SK-OV-3 ovarian) of 20.2 µM and a TGI (SK-OV-3 ovarian) of 73.9 µM. For the same molecule, the GI50 (SN12C renal) was 38 µM, the TGI (SN12C renal) was over 100 µM and the GI50 (SNB-19 CNS) was 13.6 µM. For the same molecule, the TGI (SNB-19 CNS) was 41.1 µM, the GI50 (SNB-75 CNS) was 14.4 µM and the TGI (SNB-75 CNS) was 48.7 µM. For the same molecule, the GI50 (T-47D breast) was 6.9 µM, the TGI (T-47D breast) was over 100 µM and the GI50 (TK-10 renal) was 28.6 µM. It also gave a TGI (TK-10 renal) of over 100 µM, a GI50 (U251 CNS) of 3.03 µM and a TGI (U251 CNS) of 10.2 µM. The GI50 (UACC-257 melanoma) was over 100 µM, the TGI (UACC-257 melanoma) was over 100 µM and the GI50 (UACC-62 melanoma) was 15.6 µM. It also gave a TGI (UACC-62 melanoma) of over 100 µM, a GI50 (UO-31 renal) of 8.96 µM and a TGI (UO-31 renal) of over 100 µM.

Reference: PubChem BioAssay (NCI)
